In this test the test system is T1, XoxF5.
T1 construct: His-tagged, expressed in native host Methylomonas sp; LW13 (wild-type) grown with Ce3+; Ni-NTA purified
In words: PMS-mediated DCPIP reduction at […] nm. The test is classed as biochemical. As to conditions: pH 9.0, 45 mM NH4Cl, ~26°C, 1 mM PMS, 150 μM DCPIP; Ce3+-grown enzyme; read-out: Methylomonas sp. LW13 XoxF5 / Km.
As for `CCCCCCO` [Hexanol], the Km is 40 ± 37 µM.

As to `CO` [Methanol], the Km turned out to be 39 ± 11 µM.

Turning to `CCCCO` [Butanol], the Km amounted to 96 ± 70 µM.

Consider `CCO` [Ethanol], for which the Km came out at 85 ± 44 µM.

(Values after paper PMC6028718, “Lanthanide-Dependent Methanol Dehydrogenases of XoxF4 and XoxF5 Clades Are Differentially Distributed Among Methylotrophic Bacteria and They Reveal Different Biochemical Properties” (Frontiers in Microbiology, 2018).)
